Experimental data published in patent US7060678B2, “Peptides comprising furanoid sugar amino acids for the treatment of cancer” (Dabur Research Foundation, priority 2003, dated 2006).
Like-named read-outs stand apart in the source and are kept apart here. Starred links: 1 amine or outer side, 2 acyl side, 3 side chain; linkers in the order of their positions; H or OH if unused. Non-standard residues stand in square brackets, D forms with d. Residues, ends and D or L forms follow the SMILES beside them. X2 = O=C([C@@H]1CC[C@H](CN[*:1])O1)[*:2]; X1 = O=C(C1CCC(CN[*:1])O1)[*:2]

Legend:
[1] = system: HeP-G2 (liver); assay: MTT cytotoxicity assay, HeP-G2 cells; assay type: cell-based, human; details: 48 hours
Excerpt: (§1) The following cell lines were used.

[2] = system: MiaPaCa.2 (human pancreas); assay: MTT cytotoxicity assay, MiaPaCa.2 cells; assay type: cell-based; details: 48 hours
Excerpt: as §1

[3] = system: PTC (colon); assay: MTT cytotoxicity assay, PTC cells; assay type: cell-based, human; details: 48 hours
Excerpt: as §1

[4] = system: PA1 (human ovary); assay: MTT cytotoxicity assay, PA1 cells; assay type: cell-based; details: human, 48 hours
Excerpt: as §1

[5] = system: ECV-304 (endothelial); details: ECV-304 cells, 48 hours, NA = Not Active
Excerpt: Although sterile phosphate buffered saline was used to prepare each stock solution for the testing described in the following example, other diluents may be used such as buffered saline, isotonic NaCl, Ringer's solution, water, distilled water, polyethylene glycol (neat or in water), Tween in water, dimethylsulfoxide up to 50% in water, propylene glycol (neat or in water), phosphate buffered saline, balanced salt solution, glycerol, and other conventional fluids that are suitable for parentral administration. To obtain a pH in the range of approximately 3.5 to 7.0, for each stock solution, the pH can be adjusted by using 1N HCl for lowering the pH or 1N NaOH for raising the pH, although other buffers such as citrate buffer, phosphate buffer and the like or other conventional agents for adjusting the pH can be used.
The MTT assay is based on the principle of uptake of MTT [3-[4,5-dimethylthiazol-2-yl]-2,5-diphenyl tetrazolium bromide], a tetrazolium salt, by the metabolically active cells where it is metabolized by active mitochondria into a blue colored formazan product which can be read spectrophotometrically. […] The formazan crystals formed inside the cells were dissolved with a detergent comprising of 10% Sodium dodecyl sulfate and 0.01 N HCl and optical density read on a multi-scan ELISA reader. The optical density was directly proportional to the number of proliferating and metabolically active cells. The following cell lines were used. PA1(human ovary), PTC (colon), HeP-2 (larynx), MiaPaCa.2 (human pancreas), KB (oral), ECV-304 (endothelial) and HeP-G2 (liver).

[6] = system: HeP-2 (larynx); assay: MTT cytotoxicity assay, HeP-2 cells; assay type: cell-based, human; details: 48 hours
Excerpt: as §1

[7] = system: human colon adenocarcinoma (PTC) xenografts; assay: In vivo antitumour activity on primary tumor (colon) xenografted mice; parameters: species or system Balb/c athymic mice; details: PTC xenografts in nude mice; intravenously 0.5 mg/Kg. B. Wt twice a day; till day 21
Method: The antitumor activity of the peptide (SEQ ID NO: 12) was studied in human colon adenocarcinoma (PTC) xenografts in nude mice. PTC tumor xenografts were grown in Balb/c athymic mice by subcutaneous inoculation of a single cell suspension of PTC cells (15×10^6 cells/100 μL). The tumor bearing animals were divided into 2 groups of five animals each including one group comprising untreated control animals. Treatment with novel peptide was initiated when the average tumor volumes, as measured using a vernier caliper, were between 400–800 mm^3. Solution of SEQ ID NO 12 was prepared at a concentration of 100 μg/ml and intravenously administered to the assigned group of tumor bearing animals at a dose of 0.5 mg/Kg. B. Wt twice a day so that the total dose of 1 mg/Kg. B. Wt was administered to each animal. The treatment was continued for a period of 21 days.
The antitumor activity of the compounds was monitored by measuring tumor volumes every fourth day using the formula W*W*L*0.4 (W=smaller diameter, L=larger diameter). The percentage inhibition of tumor growth was calculated using the formula (1-tumor volume-treated/tumor volume-control)* 100.

[8] = system: KB (oral); assay: MTT cytotoxicity assay, KB cells; assay type: cell-based, human; details: 48 hours
Excerpt: as §1

With `CSCC[C@H](N)C(=O)NC[C@H]1CC[C@@H](C(=O)N[C@@H](Cc2ccc(O)cc2)C(=O)N[C@@H](CC(C)C)C(=O)O)O1` [SEQ ID NO: 17, Met-Saa4-Tyr-Leu] the “Percent Cytotoxicity” value ([1]; human, 1 nM) was 12.8 ± 0.6%, the “Percent Cytotoxicity” value ([1]; human, 10 nM) was 17.9 ± 1.4% and the “Percent Cytotoxicity” value ([1]; human, 100 nM) was 20.9 ± 1.4%. The “Percent Cytotoxicity” value ([1]; human, 1 μM) was 12.0 ± 0.7%, the “Percent Cytotoxicity” value ([2]; human, 1 nM) was 23.0 ± 2.1% and the “Percent Cytotoxicity” value ([2]; human, 10 nM) was 21.8 ± 1.9%. The “Percent Cytotoxicity” value ([2]; human, 100 nM) was 17.0 ± 0.9%, the “Percent Cytotoxicity” value ([2]; human, 1 μM) was 16.0 ± 1.4% and the “Percent Cytotoxicity” value ([3]; human, 1 nM) was 12.0 ± 1.7%. The “Percent Cytotoxicity” value ([3]; human, 10 nM) was 11.9 ± 1.4%, the “Percent Cytotoxicity” value ([3]; human, 100 nM) was 10.4 ± 0.6% and the “Percent Cytotoxicity” value ([3]; human, 1 μM) was 8.4 ± 1.0%. The “Percent Cytotoxicity” value ([4]; 1 nM) was 18.2 ± 1.1%, the “Percent Cytotoxicity” value ([4]; 10 nM) was 17.8 ± 1.7% and the “Percent Cytotoxicity” value ([4]; 100 nM) was 15.9 ± 0.6%. The “Percent Cytotoxicity” value ([4]; 1 μM) was 6.0 ± 0.7%, the “Percent Cytotoxicity” value ([5]; peptide 1 nM) was 16.4 ± 1.9% and the “Percent Cytotoxicity” value ([5]; peptide 10 nM) was 13.9 ± 0.5%. The “Percent Cytotoxicity” value ([5]; peptide 100 nM) was 11.9 ± 1.1%, the “Percent Cytotoxicity” value ([6]; human, 1 nM) was 33.6 ± 2.7% and the “Percent Cytotoxicity” value ([6]; human, 10 nM) was 31.7 ± 3.2%. The “Percent Cytotoxicity” value ([6]; human, 100 nM) was 29.0 ± 0.4% and the “Percent Cytotoxicity” value ([6]; human, 1 μM) was 27.9 ± 2.9%.

For `CSCC[C@H](NC(=O)[C@@H](N)CC(C)C)C(=O)N[C@@H](Cc1ccc(O)cc1)C(=O)NCC1CCC(C(=O)N[C@@H](Cc2ccc(O)cc2)C(=O)N[C@@H](CC(C)C)C(=O)N[C@@H](CCCCN)C(=O)O)O1` (stereo partly drawn) [SEQ ID NO: 12, Leu-Met-Tyr-Saa3-Tyr-Leu-Lys] (H-LMY[X1]YLK-OH), the “Percent Cytotoxicity” value ([2]; human, 1 nM) was 23.8 ± 3.2%, the “Percent Cytotoxicity” value ([2]; human, 10 nM) was 30.6 ± 3.9% and the “Percent Cytotoxicity” value ([2]; human, 100 nM) was 21.9 ± 0.2%. For the same molecule, the “Percent Cytotoxicity” value ([2]; human, 1 μM) was 13.9 ± 2.7%, the “Percent Cytotoxicity” value ([3]; human, 1 nM) was 12.7 ± 1.8% and the “Percent Cytotoxicity” value ([3]; human, 10 nM) was 14.8 ± 1.9%. The “Percent Cytotoxicity” value ([3]; human, 100 nM) was 10.8 ± 2.0%, the “antitumor activity on PTC xenografts (tumor volume kinetics, FIG. 1)” value [7] was “significant antitumor activity” and the “Percent Cytotoxicity” value ([4]; 1 nM) was 20.2 ± 2.1%. For the same molecule, the “Percent Cytotoxicity” value ([4]; 10 nM) was 24.6 ± 2.7%, the “Percent Cytotoxicity” value ([4]; 100 nM) was 39.3 ± 3.0% and the “Percent Cytotoxicity” value ([4]; 1 μM) was 32.1 ± 2.0%. For the same molecule, the “Percent Cytotoxicity” value ([5]; peptide 1 nM) was 32.0 ± 3.9%, the “Percent Cytotoxicity” value ([5]; peptide 10 nM) was 36.9 ± 3.2% and the “Percent Cytotoxicity” value ([5]; peptide 100 nM) was 27.9 ± 2.9%. The “Percent Cytotoxicity” value ([5]; peptide 1 μM) was 22.2 ± 2.2%, the “Percent Cytotoxicity” value ([8]; human, 1 nM) was 32.9 ± 4.3% and the “Percent Cytotoxicity” value ([8]; human, 10 nM) was 37.4 ± 2.9%. The “Percent Cytotoxicity” value ([8]; human, 100 nM) was 33.2 ± 0.4%, the “Percent Cytotoxicity” value ([8]; human, 1 μM) was 19.9 ± 1.9% and the “Percent Cytotoxicity” value ([6]; human, 1 nM) was 21.9 ± 2.9%. The “Percent Cytotoxicity” value ([6]; human, 10 nM) was 39.3 ± 3.2%, the “Percent Cytotoxicity” value ([6]; human, 100 nM) was 32.2 ± 1.9% and the “Percent Cytotoxicity” value ([6]; human, 1 μM) was 28.9 ± 3.2%.

`CSCC[C@H](NC(=O)[C@@H](N)CC(C)C)C(=O)NC[C@H]1CC[C@@H](C(=O)N[C@H](C(=O)N[C@@H](Cc2ccc(O)cc2)C(=O)N[C@@H](CC(C)C)C(=O)N[C@@H](CCCCN)C(=O)O)[C@@H](C)O)O1` [SEQ ID NO: 9, Leu-Met-Saa4-Thr-Tyr-Leu-Lys] (H-LM[X2]TYLK-OH) was tested, and the “Percent Cytotoxicity” value ([1]; HeP-G2 cells, peptide 1 nM, NA = Not Active) was 11.2 ± 1.1%, the “Percent Cytotoxicity” value ([1]; HeP-G2 cells, peptide 10 nM, NA = Not Active) was 10.7 ± 1.1% and the “Percent Cytotoxicity” value ([2]; MiaPaCa.2 cells, peptide 1 nM, NA = Not Active) was 14.8 ± 2.9%. The “Percent Cytotoxicity” value ([2]; MiaPaCa.2 cells, peptide 10 nM, NA = Not Active) was 12.9 ± 1.5%, the “Percent Cytotoxicity” value ([2]; MiaPaCa.2 cells, peptide 100 nM, NA = Not Active) was 9.3 ± 1.1% and the “Percent Cytotoxicity” value ([2]; MiaPaCa.2 cells, peptide 1 μM, NA = Not Active) was 5.9 ± 0.0%. The “Percent Cytotoxicity” value ([3]; PTC cells, peptide 1 nM, NA = Not Active) was 33.5 ± 2.9%, the “Percent Cytotoxicity” value ([3]; PTC cells, peptide 10 nM, NA = Not Active) was 31.9 ± 2.8% and the “Percent Cytotoxicity” value ([3]; PTC cells, peptide 100 nM, NA = Not Active) was 29.5 ± 2.7%. For the same molecule, the “Percent Cytotoxicity” value ([3]; PTC cells, peptide 1 μM, NA = Not Active) was 26.0 ± 2.2%, the “Percent Cytotoxicity” value ([5]; peptide 1 nM) was 12.8 ± 1.4% and the “Percent Cytotoxicity” value ([5]; peptide 10 nM) was 15.8 ± 1.1%. For the same molecule, the “Percent Cytotoxicity” value ([5]; peptide 100 nM) was 10.4 ± 2.0%, the “Percent Cytotoxicity” value ([5]; peptide 1 μM) was 7.9 ± 0.4% and the “Percent Cytotoxicity” value ([8]; KB cells, peptide 1 nM, NA = Not Active) was 14.5 ± 1.8%. For the same molecule, the “Percent Cytotoxicity” value ([8]; KB cells, peptide 10 nM, NA = Not Active) was 12.5 ± 1.9%, the “Percent Cytotoxicity” value ([8]; KB cells, peptide 100 nM, NA = Not Active) was 10.5 ± 1.2% and the “Percent Cytotoxicity” value ([6]; HeP-2 cells, peptide 1 nM, NA = Not Active) was 20.9 ± 2.0%. For the same molecule, the “Percent Cytotoxicity” value ([6]; HeP-2 cells, peptide 10 nM, NA = Not Active) was 21.0 ± 1.9%, the “Percent Cytotoxicity” value ([6]; HeP-2 cells, peptide 100 nM, NA = Not Active) was 18.8 ± 1.9% and the “Percent Cytotoxicity” value ([6]; HeP-2 cells, peptide 1 μM, NA = Not Active) was 14.6 ± 1.6%.
